Values of other authors in patent publication US20240368046A1, “UREA-BASED C[…] WITH AN INORGANIC ACID” (Y ara International ASA, priority 2021, published 2024).

urea sulphate
pKa: about 1.5
